Data published in PubChem BioAssay (NCI).
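1) Cells in 96-well plates. 2) Compound, 48 h, 5 concentrations. 3) Linear interpolation between surrounding doses. 4) Unreached endpoint = highest concentration. At the TGI there is no net growth.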

Columns and labels:
Assay in all cases: growth of human tumour cells (NCI), 48 h
[1] = tested on: M19-MEL melanoma
[2] = tested on: UO-31 renal
[3] = tested on: IGROV1 ovarian
[4] = tested on: NCI-H226 lung
[5] = tested on: KM20L2 colon
[6] = tested on: OVCAR-3 ovarian
[7] = tested on: SF-539 CNS
[8] = tested on: LXFL 529 NSCLC
[9] = tested on: OVCAR-4 ovarian
[10] = tested on: OVCAR-8 ovarian
[11] = tested on: HL-60(TB) leukemia
[12] = tested on: CCRF-CEM leukemia
[13] = tested on: HCT-116 colon
[14] = tested on: SW-620 colon
[15] = tested on: SF-268 CNS
[16] = tested on: HCC-2998 colon
[17] = tested on: SR leukemia
[18] = tested on: A549 NSCLC
[19] = tested on: EKVX NSCLC
[20] = tested on: RXF 393 renal
[21] = tested on: DLD-1 colon
[22] = tested on: UACC-257 melanoma
[23] = tested on: COLO 205 colon
[24] = tested on: LOX IMVI melanoma
[25] = tested on: DMS 273 small cell lung
[26] = tested on: TK-10 renal
[27] = tested on: OVCAR-5 ovarian
[28] = tested on: UACC-62 melanoma
[29] = tested on: CAKI-1 renal
[30] = tested on: MOLT-4 leukemia
[31] = tested on: M14 melanoma
[32] = tested on: HOP-62 NSCLC
[33] = tested on: SF-295 CNS
[34] = tested on: U251 CNS
[35] = tested on: 786-0 renal
[36] = tested on: MALME-3M melanoma
[37] = tested on: HOP-18 NSCLC
[38] = tested on: DMS 114 small cell lung
[39] = tested on: A498 renal
[40] = tested on: NCI-H23 lung
[41] = tested on: KM12 colon
[42] = tested on: SNB-78 CNS
[43] = tested on: ACHN renal
[44] = tested on: SNB-19 CNS
[45] = tested on: SK-OV-3 ovarian
[46] = tested on: K-562 leukemia
[47] = tested on: HOP-92 NSCLC
[48] = tested on: NCI-H460 lung
[49] = tested on: SNB-75 CNS
[50] = tested on: SK-MEL-28 melanoma
[51] = tested on: NCI-H522 lung
[52] = tested on: RPMI-8226 leukemia
[53] = tested on: HT29 colon
[54] = tested on: SN12C renal
[55] = tested on: HCT-15 colon
[56] = tested on: SK-MEL-2 melanoma
[57] = tested on: SK-MEL-5 melanoma
[58] = tested on: XF 498 CNS

SMILES: CC1CC(C)C(C(O)CC2CC(=O)N(c3ccccc3)C(=O)C2)C(O)C1 (stereo not drawn)
- TGI [1]: > 100 µM
- TGI [2]: > 100 µM
- TGI [3]: > 100 µM
- TGI [4]: > 100 µM
- TGI [5]: > 100 µM
- TGI [6]: > 100 µM
- TGI [7]: > 100 µM
- TGI [8]: > 100 µM
- TGI [9]: > 100 µM
- TGI [10]: > 100 µM
- TGI [11]: > 100 µM
- TGI [12]: > 100 µM
- TGI [13]: > 100 µM
- TGI [14]: > 100 µM
- TGI [15]: > 100 µM
- TGI [16]: > 100 µM
- TGI [17]: > 100 µM
- TGI [18]: > 100 µM
- TGI [19]: > 100 µM
- TGI [20]: > 100 µM
- TGI [21]: > 100 µM
- TGI [22]: > 100 µM
- TGI [23]: > 100 µM
- TGI [24]: > 100 µM
- TGI [25]: > 100 µM
- TGI [26]: > 100 µM
- TGI [27]: > 100 µM
- TGI [28]: > 100 µM
- TGI [29]: > 100 µM
- TGI [30]: > 100 µM
- TGI [31]: > 100 µM
- TGI [32]: > 100 µM
- TGI [33]: > 100 µM
- TGI [34]: > 100 µM
- TGI [35]: > 100 µM
- TGI [36]: > 100 µM
- TGI [37]: > 100 µM
- TGI [38]: > 100 µM
- TGI [39]: > 100 µM
- TGI [40]: > 100 µM
- TGI [41]: > 100 µM
- TGI [42]: > 100 µM
- TGI [43]: > 100 µM
- TGI [44]: > 100 µM
- TGI [45]: > 100 µM
- TGI [46]: > 100 µM
- TGI [47]: > 100 µM
- TGI [48]: > 100 µM
- TGI [49]: > 100 µM
- TGI [50]: > 100 µM
- TGI [51]: > 100 µM
- TGI [52]: > 100 µM
- TGI [53]: > 100 µM
- TGI [54]: > 100 µM

SMILES: O=C(CC1=Nc2nnc(-c3nnc4n3C(=O)C(CC(=O)C3CC3)=N4)n2C1=O)C1CC1
- TGI [1]: > 100 µM
- TGI [2]: > 100 µM
- TGI [3]: > 100 µM
- TGI [4]: > 100 µM
- TGI [5]: > 100 µM
- TGI [6]: > 100 µM
- TGI [7]: > 100 µM
- TGI [8]: > 100 µM
- TGI [9]: > 100 µM
- TGI [11]: > 100 µM
- TGI [12]: > 100 µM
- TGI [13]: > 100 µM
- TGI [14]: > 100 µM
- TGI [15]: > 100 µM
- TGI [16]: > 100 µM
- TGI [55]: > 100 µM
- TGI [18]: > 100 µM
- TGI [20]: > 100 µM
- TGI [21]: > 100 µM
- TGI [22]: > 100 µM
- TGI [23]: > 100 µM
- TGI [24]: > 100 µM
- TGI [25]: > 100 µM
- TGI [26]: > 100 µM
- TGI [56]: > 100 µM
- TGI [27]: > 100 µM
- TGI [28]: > 100 µM
- TGI [29]: > 100 µM
- TGI [30]: > 100 µM
- TGI [31]: > 100 µM
- TGI [32]: > 100 µM
- TGI [33]: > 100 µM
- TGI [34]: > 100 µM
- TGI [35]: > 100 µM
- TGI [36]: > 100 µM
- TGI [38]: > 100 µM
- TGI [39]: > 100 µM
- TGI [57]: > 100 µM
- TGI [40]: > 100 µM
- TGI [41]: > 100 µM
- TGI [42]: > 100 µM
- TGI [43]: > 100 µM
- TGI [44]: > 100 µM
- TGI [45]: > 100 µM
- TGI [46]: > 100 µM
- TGI [47]: > 100 µM
- TGI [48]: > 100 µM
- TGI [49]: > 100 µM
- TGI [50]: > 100 µM
- TGI [51]: > 100 µM
- TGI [52]: > 100 µM
- TGI [53]: > 100 µM
- TGI [54]: > 100 µM

SMILES: O=C(O)/C=C/c1ccncc1
- TGI [1]: > 100 µM
- TGI [2]: > 100 µM
- TGI [3]: > 100 µM
- TGI [4]: > 100 µM
- TGI [5]: > 100 µM
- TGI [6]: > 100 µM
- TGI [7]: > 100 µM
- TGI [8]: > 100 µM
- TGI [9]: > 100 µM
- TGI [10]: > 100 µM
- TGI [11]: > 100 µM
- TGI [12]: > 100 µM
- TGI [13]: > 100 µM
- TGI [14]: > 100 µM
- TGI [15]: > 100 µM
- TGI [16]: > 100 µM
- TGI [17]: > 100 µM
- TGI [55]: > 100 µM
- TGI [19]: > 100 µM
- TGI [20]: > 100 µM
- TGI [21]: > 100 µM
- TGI [22]: > 100 µM
- TGI [23]: > 100 µM
- TGI [24]: > 100 µM
- TGI [25]: > 100 µM
- TGI [26]: > 100 µM
- TGI [56]: > 100 µM
- TGI [58]: > 100 µM
- TGI [27]: > 100 µM
- TGI [28]: > 100 µM
- TGI [29]: > 100 µM
- TGI [30]: > 100 µM
- TGI [31]: > 100 µM
- TGI [32]: 0.746 µM
- TGI [33]: > 100 µM
- TGI [34]: 14 µM
- TGI [35]: > 100 µM
- TGI [36]: > 100 µM
- TGI [38]: > 100 µM
- TGI [39]: > 100 µM
- TGI [57]: > 100 µM
- TGI [40]: > 100 µM
- TGI [41]: > 100 µM
- TGI [42]: > 100 µM
- TGI [43]: > 100 µM
- TGI [44]: > 100 µM
- TGI [45]: > 100 µM
- TGI [46]: > 100 µM
- TGI [47]: > 100 µM
- TGI [48]: > 100 µM
- TGI [49]: > 100 µM
- TGI [50]: > 100 µM
- TGI [51]: > 100 µM
- TGI [52]: > 100 µM
- TGI [53]: > 100 µM
- TGI [54]: > 100 µM
